Several values for one entry are separate records, joined by “and”; a condition that tells them apart may be missing. Equal entries are not always repeated.
Tested on: 653999-131-R-J2-PDC complex spheroids, growth % test/control
Assay: Anticancer human tumor 653999-131-R-J2-PDC patient-derived lung adenocarcinoma cell line growth inhibition [AhR]
Settings: for viability, T/C: stronger effect = lower value; active = viability on the fitted dose curve at most 10% of control; inactive = the rest
Procedure, shortened: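 Spheroids combined tumor cells with HUVEC endothelial cells and human MSCs as stroma. AhR antagonists were paired with standard or investigational drugs, each dosed in half-log steps down from near clinical Cmax, or from 10 microM where Cmax was unknown.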

[1] = curve of first compound, second compound 0.1 µM
[2] = curve of first compound, second compound 0.316 µM
[3] = curve of first compound, second compound 1 µM
[4] = curve of first compound, second compound 3.16 µM
[5] = curve of first compound, second compound 10 µM
[6] = second compound 0.1 µM, first compound 0.0316 µM
[7] = second compound 0.1 µM, first compound 0.1 µM
[8] = second compound 0.1 µM, first compound 0.316 µM
[9] = second compound 0.1 µM, first compound 1 µM
[10] = second compound 0.1 µM, first compound 3.16 µM
[11] = second compound 0.1 µM, first compound 10 µM
[12] = second compound 0.316 µM, first compound 0.0316 µM
[13] = second compound 0.316 µM, first compound 0.1 µM
[14] = second compound 0.316 µM, first compound 0.316 µM
[15] = second compound 0.316 µM, first compound 1 µM
[16] = second compound 0.316 µM, first compound 3.16 µM
[17] = second compound 0.316 µM, first compound 10 µM
[18] = second compound 1 µM, first compound 0.0316 µM
[19] = second compound 1 µM, first compound 0.1 µM
[20] = second compound 1 µM, first compound 0.316 µM
[21] = second compound 1 µM, first compound 1 µM
[22] = second compound 1 µM, first compound 3.16 µM
[23] = second compound 1 µM, first compound 10 µM
[24] = second compound 3.16 µM, first compound 0.0316 µM
[25] = second compound 3.16 µM, first compound 0.1 µM
[26] = second compound 3.16 µM, first compound 0.316 µM
[27] = second compound 3.16 µM, first compound 1 µM
[28] = second compound 3.16 µM, first compound 3.16 µM
[29] = second compound 3.16 µM, first compound 10 µM
[30] = second compound 10 µM, first compound 0.0316 µM
[31] = second compound 10 µM, first compound 0.1 µM
[32] = second compound 10 µM, first compound 0.316 µM
[33] = second compound 10 µM, first compound 1 µM
[34] = second compound 10 µM, first compound 3.16 µM
[35] = second compound 10 µM, first compound 10 µM
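Note: spheroids exposed to agents for seven days.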
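Throughout, for viability, T/C: 100% = DMSO vehicle control viability.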

NS(=O)(=O)OCC1CC(n2ccc3c(NC4CCc5ccccc54)ncnc32)CC1O (stereo unspecified) + Cc1ccccc1N=Nc1ccc(NC(=O)c2ccnn2C)c(C)c1
> 10000 nM: IC50 [1] | IC50 [2] | IC50 [3] | IC50 [4] | IC50 [5]
inactive: viability, T/C [6] 111% | viability, T/C [7] 120% | viability, T/C [8] 118% | viability, T/C [9] 124% | viability, T/C [10] 88.9% | viability, T/C [11] 64.7% | viability, T/C [12] 114% | viability, T/C [13] 105% | viability, T/C [14] 123% | viability, T/C [15] 129% | viability, T/C [16] 72.7% | viability, T/C [17] 61.3% | viability, T/C [18] 115% | viability, T/C [19] 119% | viability, T/C [20] 124% | viability, T/C [21] 124% | viability, T/C [22] 63.3% | viability, T/C [23] 61.4% | viability, T/C [24] 125% | viability, T/C [25] 109% | viability, T/C [26] 142% | viability, T/C [27] 93.4% | viability, T/C [28] 61.8% | viability, T/C [29] 62.3% | viability, T/C [30] 129% | viability, T/C [31] 118% | viability, T/C [32] 115% | viability, T/C [33] 63.7% | viability, T/C [34] 56.7% | viability, T/C [35] 60%

Cc1cncc(-c2nc(NCCc3c[nH]c4ccccc34)c3ncn(C(C)C)c3n2)c1
inactive: viability, T/C (compound 0.1 µM) 92.6% [middle of 20 runs] | viability, T/C (compound 0.316 µM) 97% [middle of 20 runs] | viability, T/C (compound 1 µM) 101% [middle of 20 runs] | viability, T/C (compound 10 µM) 52% [middle of 20 runs]

CC1(C)CCC(CN2CCN(c3ccc(C(=O)NS(=O)(=O)c4ccc(NCC5CCOCC5)c([N+](=O)[O-])c4)c(Oc4cnc5[nH]ccc5c4)c3)CC2)=C(c2ccc(Cl)cc2)C1 + CC(CO)NC(=O)c1cc(-c2ccc(Cl)cc2)nn(-c2cnn(C)c2)c1=O
> 10000 nM: IC50 [1] | IC50 [2] | IC50 [3] | IC50 [4] | IC50 [5]
inactive: viability, T/C [6] 105% | viability, T/C [7] 101% | viability, T/C [8] 99.6% | viability, T/C [9] 94.1% | viability, T/C [10] 108% | viability, T/C [11] 71.2% | viability, T/C [12] 98% | viability, T/C [13] 101% | viability, T/C [14] 103% | viability, T/C [15] 89.8% | viability, T/C [16] 94% | viability, T/C [17] 71% | viability, T/C [18] 90.8% | viability, T/C [19] 104% | viability, T/C [20] 107% | viability, T/C [21] 98.4% | viability, T/C [22] 103% | viability, T/C [23] 80.3% | viability, T/C [24] 96.2% | viability, T/C [25] 101% | viability, T/C [26] 106% | viability, T/C [27] 108% | viability, T/C [28] 95.3% | viability, T/C [29] 75.1% | viability, T/C [30] 99% | viability, T/C [31] 107% | viability, T/C [32] 111% | viability, T/C [33] 105% | viability, T/C [34] 92.5% | viability, T/C [35] 74.5%

COc1cccc2c1C(=O)c1c(O)c3c(c(O)c1C2=O)CC(O)(C(=O)CO)CC3OC1CC(N)C(O)C(C)O1 (stereo unspecified) + Cc1ccccc1N=Nc1ccc(NC(=O)c2ccnn2C)c(C)c1
95.9 nM: IC50 [4]
active: viability, T/C [16] 4.48% | viability, T/C [17] 17.2%
129 nM: IC50 [5]
< 31.6 nM: IC50 [1] | IC50 [2] | IC50 [3]
inactive: viability, T/C [6] 50.3% | viability, T/C [7] 44.6% | viability, T/C [8] 25.8% | viability, T/C [9] 9.24% | viability, T/C [10] 5.33% | viability, T/C [11] 16.6% | viability, T/C [12] 50.5% | viability, T/C [13] 40.8% | viability, T/C [14] 29.3% | viability, T/C [15] 9.21% | viability, T/C [18] 48.8% | viability, T/C [19] 44% | viability, T/C [20] 28.6% | viability, T/C [21] 10.4% | viability, T/C [22] 8.05% | viability, T/C [23] 19.6% | viability, T/C [24] 55.6% | viability, T/C [25] 47% | viability, T/C [26] 32.6% | viability, T/C [27] 12.3% | viability, T/C [28] 11.6% | viability, T/C [29] 19.2% | viability, T/C [30] 60.5% | viability, T/C [31] 51% | viability, T/C [32] 37.2% | viability, T/C [33] 16.3% | viability, T/C [34] 8.54% | viability, T/C [35] 22.5%

CC[C@@]1(O)C(=O)OCc2c1cc1n(c2=O)Cc2cc3c(CN(C)C)c(O)ccc3nc2-1 + Cc1ccccc1N=Nc1ccc(NC(=O)c2ccnn2C)c(C)c1
79.6 nM: IC50 [2]
68.2 nM: IC50 [3]
> 100 nM: IC50 [5]
84.9 nM: IC50 [4]
77.5 nM: IC50 [1]
inactive: viability, T/C (second compound 0.1 µM, first compound 0.000316 µM) 111% | viability, T/C (second compound 0.1 µM, first compound 0.001 µM) 104% | viability, T/C (second compound 0.1 µM, first compound 0.00316 µM) 93.1% | viability, T/C (second compound 0.1 µM, first compound 0.01 µM) 87.7% | viability, T/C [6] 63.7% | viability, T/C [7] 45.9% | viability, T/C (second compound 0.316 µM, first compound 0.000316 µM) 95% | viability, T/C (second compound 0.316 µM, first compound 0.001 µM) 108% | viability, T/C (second compound 0.316 µM, first compound 0.00316 µM) 120% | viability, T/C (second compound 0.316 µM, first compound 0.01 µM) 88.3% | viability, T/C [12] 63.4% | viability, T/C [13] 46% | viability, T/C (second compound 1 µM, first compound 0.000316 µM) 101% | viability, T/C (second compound 1 µM, first compound 0.001 µM) 122% | viability, T/C (second compound 1 µM, first compound 0.00316 µM) 109% | viability, T/C (second compound 1 µM, first compound 0.01 µM) 94.5% | viability, T/C [18] 61.6% | viability, T/C [19] 44.2% | viability, T/C (second compound 3.16 µM, first compound 0.000316 µM) 103% | viability, T/C (second compound 3.16 µM, first compound 0.001 µM) 110% | viability, T/C (second compound 3.16 µM, first compound 0.00316 µM) 109% | viability, T/C (second compound 3.16 µM, first compound 0.01 µM) 91.7% | viability, T/C [24] 59% | viability, T/C [25] 48.2% | viability, T/C (second compound 10 µM, first compound 0.000316 µM) 117% | viability, T/C (second compound 10 µM, first compound 0.001 µM) 106% | viability, T/C (second compound 10 µM, first compound 0.00316 µM) 101% | viability, T/C (second compound 10 µM, first compound 0.01 µM) 82.3% | viability, T/C [30] 65.8% | viability, T/C [31] 57.8%

COc1cc(C2c3cc4c(cc3C(OC3OC5COC(C)OC5C(O)C3O)C3COC(=O)C23)OCO4)cc(OC)c1O (stereo unspecified) + Cc1cncc(-c2nc(NCCc3c[nH]c4ccccc34)c3ncn(C(C)C)c3n2)c1
1190 nM: IC50 [3]
44 nM: IC50 [5]
inactive: viability, T/C [6] 92.3% | viability, T/C [7] 94.7% | viability, T/C [8] 58.6% | viability, T/C [9] 51.5% | viability, T/C [10] 37.9% | viability, T/C [11] 28.6% | viability, T/C [12] 91% | viability, T/C [13] 79.7% | viability, T/C [14] 58.1% | viability, T/C [15] 45.6% | viability, T/C [16] 39% | viability, T/C [17] 28.4% | viability, T/C [18] 93.1% | viability, T/C [19] 84.3% | viability, T/C [20] 71% | viability, T/C [21] 49.3% | viability, T/C [22] 40.9% | viability, T/C [23] 29% | viability, T/C [24] 96.4% | viability, T/C [25] 85.6% | viability, T/C [26] 69% | viability, T/C [27] 54.5% | viability, T/C [28] 44.4% | viability, T/C [29] 31.2% | viability, T/C [30] 50.2% | viability, T/C [31] 47.1% | viability, T/C [32] 46.2% | viability, T/C [33] 36.3% | viability, T/C [34] 31.6% | viability, T/C [35] 33.8%
732 nM: IC50 [2]
1640 nM: IC50 [4]
841 nM: IC50 [1]

CC1COCCN1c1cc(C2(S(C)(=N)=O)CC2)nc(-c2ccnc3[nH]ccc23)n1 (stereo unspecified)
> 10000 nM and 8160 nM: IC50 (curve of compound)
inactive: viability, T/C (compound 0.0316 µM) 109% and 102% and 99.7% | viability, T/C (compound 0.1 µM) 110% and 106% and 102% | viability, T/C (compound 0.316 µM) 104% and 101% and 107% | viability, T/C (compound 1 µM) 101% and 98.8% and 94.3% | viability, T/C (compound 3.16 µM) 87.2% and 70.5% and 81.3% | viability, T/C (compound 10 µM) 50.6% and 45.6% and 57.8%

Reference: PubChem BioAssay AID1919000 (Molecular Pharmacology Branch, DTP, NCI, 2023)
